Source: patent US20030064912A1, “Pharmaceutical compositions and methods of inhibiting angiogenesis using NAALADase inhibitors” (priority 1998, published 2003)

Columns and labels:
NAALADase = NAALADase (Homo sapiens, UniProt Q04609); test: In vitro inhibition of NAALADase activity; type: biochemical; conditions: for Ki: in vitro inhibition of NAALADase activity; for NAALADase inhibiting activity (in words): qualitative, compared with 2-(phosphonomethyl)pentanedioic acid
Procedure: Various compounds of the present invention were tested for in vitro inhibition of NAALADase activity.

mice = test: In vivo toxicity of NAALADase inhibitors in mice; conditions: for Survival Rate After 5 days (%): observed 5 consecutive days
Excerpt: The mice were subsequently observed two times per day for 5 consecutive days. The survival rate at each dose level is provided below in TABLE II.

[1] = test system: angiogenesis in Matrigel™ plugs; test: In vivo assay of daily dosages of NAALADase inhibitors on angiogenesis (Matrigel plug with bFGF); set-up: species or system C57B1 female mice; conditions: 7 days post injection
Procedure: C57B1 female mice age 8 to 10 weeks (5/group) were injected subcutaneously with 0.5 mL of Matrigel™, 150 ng/mL of the angiogenic factor basic FGF (bFGF) and with 0, 0.47 μM or 4.7 μM […] (PMPA). The injected Matrigel™ rapidly formed a gel. […] Seven days post Matrigel™ injection, Matrigel™ plugs were excised and histology was performed.
The concentrations of the daily dosages as well as the coinciding initial Matrigel™ plug compositions are provided below in TABLE IV.

[2] = test system: angiogenesis in the Matrigel™/bFGF gels; test: In vivo assay of a continuous dosage of NAALADase inhibitors on angiogenesis (miniosmotic pumps, Matrigel/bFGF); set-up: species or system C57B1 female mice; conditions: 13 days post injection
Procedure: Minipumps filled with vehicle (50 mM Hepes) were also implanted at this time. Twenty-four hours later, mice were each injected subcutaneously with 0.5 mL Matrigel™ and the 150 ng/mL of the angiogenic factor, basic FGF (bFGF). Thirteen days post Matrigel™/bFGF injection, the gels were recovered, fixed in formalin and sections were stained with Trichrome-Masson stain.

Chain of NAALADase (Q04609 whole entry): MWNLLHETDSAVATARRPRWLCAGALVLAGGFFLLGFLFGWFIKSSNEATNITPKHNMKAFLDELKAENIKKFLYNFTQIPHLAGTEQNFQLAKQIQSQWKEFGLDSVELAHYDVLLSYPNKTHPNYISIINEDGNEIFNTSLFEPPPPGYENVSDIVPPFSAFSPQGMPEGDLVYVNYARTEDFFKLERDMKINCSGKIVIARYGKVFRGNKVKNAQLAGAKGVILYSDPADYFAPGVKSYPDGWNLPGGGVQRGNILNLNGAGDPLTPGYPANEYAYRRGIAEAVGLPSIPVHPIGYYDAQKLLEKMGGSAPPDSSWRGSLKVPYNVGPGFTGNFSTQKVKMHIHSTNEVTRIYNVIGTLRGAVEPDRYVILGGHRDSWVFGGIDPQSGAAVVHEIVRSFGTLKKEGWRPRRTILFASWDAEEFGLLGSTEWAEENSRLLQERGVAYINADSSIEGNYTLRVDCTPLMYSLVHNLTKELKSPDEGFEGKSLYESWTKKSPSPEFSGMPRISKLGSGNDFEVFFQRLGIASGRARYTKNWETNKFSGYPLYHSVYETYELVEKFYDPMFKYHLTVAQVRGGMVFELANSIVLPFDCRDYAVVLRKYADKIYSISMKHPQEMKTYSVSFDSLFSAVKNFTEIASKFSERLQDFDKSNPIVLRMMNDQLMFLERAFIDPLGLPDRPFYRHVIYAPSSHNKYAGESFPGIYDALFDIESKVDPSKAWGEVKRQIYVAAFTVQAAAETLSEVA

SMILES	Ki (NAALADase)	also measured
O=C(O)CCC(CP(=O)(O)CNC(=O)Nc1ccccc1)C(=O)O (stereo not drawn)	75 nM	–
CC(CP(=O)(O)CC(CCC(=O)O)C(=O)O)C(=O)O (stereo not drawn)	1.5 nM	–
O=C(O)CCC(CP(=O)(O)CN1C(=O)c2ccccc2C1=O)C(=O)O (stereo not drawn)	34.5 nM	–
O=C(O)CCC(CP(=O)(O)Cc1ccccc1)C(=O)O (stereo not drawn)	34.1 nM	–
CC(=O)NCP(=O)(O)CC(CCC(=O)O)C(=O)O (stereo not drawn)	118 nM	–
O=C(O)CCC(CP(=O)(O)O)C(=O)O (stereo not drawn) [2-(phosphonomethyl)pentanedioic acid]	–	Survival Rate After 5 days (%) (mice; dose 1 mg/kg): 100%; Survival Rate After 5 days (%) (mice; dose 5 mg/kg): 100%; Survival Rate After 5 days (%) (mice; dose 10 mg/kg): 100%; Survival Rate After 5 days (%) (mice; dose 30 mg/kg): 100%; Survival Rate After 5 days (%) (mice; dose 100 mg/kg): 100%; Survival Rate After 5 days (%) (mice; dose 300 mg/kg): 100%; Survival Rate After 5 days (%) (mice; dose 500 mg/kg): 66.7%; Toxicity to mice (in words) (mice; doses 1 to 500 mg/kg): non-toxic to mice; NAALADase inhibiting activity (in words) (NAALADase): high NAALADase inhibiting activity; Angiogenic response in Matrigel™ plugs (histology) ([1]; 3 mg/kg daily subcutaneous injection, 0.47 μM in Matrigel): decreased neovasculature or angiogenesis; Angiogenic response in Matrigel™ plugs (histology) ([1]; 3 mg/kg daily subcutaneous injection, 0.47 μM in Matrigel, listed as PMPA): decrease in blood vessels or angiogenesis; Angiogenic response in Matrigel™ plugs (histology) ([1]; 30 mg/kg daily subcutaneous injection, 4.7 μM in Matrigel): decreased neovasculature or angiogenesis; Angiogenic response in Matrigel™ plugs (histology) ([1]; 30 mg/kg daily subcutaneous injection, 4.7 μM in Matrigel, listed as PMPA): decrease in blood vessels or angiogenesis; Angiogenic response in Matrigel™/bFGF gels ([2]; 1 μg/day continuous by minipump): strong angiogenic response; Angiogenic response in Matrigel™/bFGF gels ([2]; 10 μg/day continuous by minipump): significantly decreased angiogenesis; Angiogenic response in Matrigel™/bFGF gels ([2]; 100 μg/day continuous by minipump): significantly decreased angiogenesis
CCCCP(=O)(O)CC(CCC(=O)O)C(=O)O (stereo not drawn)	114 nM	–
O=C(O)CCC(CP(=O)(O)c1ccccc1)C(=O)O (stereo not drawn)	35.9 nM	–
O=C(O)CCC(CP(=O)(O)CNCc1ccccc1)C(=O)O (stereo not drawn)	51.8 nM	–
O=C(O)CCC(CP(=O)(O)CCC(=O)O)C(=O)O (stereo not drawn) [2-[[(2-carboxyethyl)hydroxyphosphinyl]-methyl]pentanedioic acid]	1.89 ± 0.19 nM	NAALADase inhibiting activity (in words) (NAALADase): lower NAALADase inhibiting activity
O=C(O)CCC(CP(=O)(O)CCc1ccccc1)C(=O)O (stereo not drawn)	148 nM	–
O=C(O)CCC(CP(=O)(O)C(NCc1ccccc1)c1ccccc1)C(=O)O (stereo not drawn)	313 nM	–
O=C(O)CCC(CP(=O)(O)CCCc1ccccc1)C(=O)O (stereo not drawn)	232 nM	–
O=C(O)CCC(CP(=O)(O)Cc1cccc(C(F)(F)F)c1)C(=O)O (stereo not drawn)	22.5 nM	–
Cc1ccc(NCP(=O)(O)CC(CCC(=O)O)C(=O)O)cc1 (stereo not drawn)	5.2 nM	–
O=C(O)CCC(CP(=O)(O)Cc1c(F)c(F)c(F)c(F)c1F)C(=O)O (stereo not drawn)	22.7 nM	–
COc1ccc(NCP(=O)(O)CC(CCC(=O)O)C(=O)O)cc1 (stereo not drawn)	2.5 nM	–
O=C(O)CCC(CP(=O)(O)CC(CCC(=O)O)C(=O)O)C(=O)O (stereo not drawn)	0.57 nM	–
O=C(O)CC(CP(=O)(O)O)C(=O)O (stereo not drawn) [2-(phosphonomethyl)succinic acid]	–	NAALADase inhibiting activity (in words) (NAALADase): much lower NAALADase inhibiting activity
O=C(O)CCC(CP(=O)(O)CC(CCC(=O)OCc1ccccc1)C(=O)OCc1ccccc1)C(=O)O (stereo not drawn)	12.7 nM	–
